{
  "source": "patent US10766865B2",
  "about": "“PKM2 modulators and methods for their use” (TOLERO PHARMACEUTICALS, INC., priority 2012, dated 2020)",
  "target": "PKM2 (Homo sapiens, UniProt P14618)",
  "sequence (P14618 whole entry)": "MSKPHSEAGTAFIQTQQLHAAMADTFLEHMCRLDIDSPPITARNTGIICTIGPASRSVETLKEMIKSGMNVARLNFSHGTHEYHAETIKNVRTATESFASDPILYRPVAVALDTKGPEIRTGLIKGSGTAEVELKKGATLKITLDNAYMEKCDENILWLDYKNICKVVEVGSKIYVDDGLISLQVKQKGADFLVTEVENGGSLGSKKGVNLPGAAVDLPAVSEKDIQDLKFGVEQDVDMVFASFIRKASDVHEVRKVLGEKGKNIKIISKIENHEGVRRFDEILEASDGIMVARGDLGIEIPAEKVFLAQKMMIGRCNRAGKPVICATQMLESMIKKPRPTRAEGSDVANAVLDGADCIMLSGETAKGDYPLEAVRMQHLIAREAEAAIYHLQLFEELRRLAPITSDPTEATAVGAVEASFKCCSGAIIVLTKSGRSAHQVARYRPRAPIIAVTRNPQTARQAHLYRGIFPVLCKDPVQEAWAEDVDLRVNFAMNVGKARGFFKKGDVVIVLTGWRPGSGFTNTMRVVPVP",
  "test": "PKM2 Biochemical Assay",
  "conditions": "for Max. Resp.: % maximum response in a biochemical assay as compared with Fructose 1,6-bisphosphate",
  "protocol": "Full length, human PKM2 enzyme was obtained from Promab (Richmond, Calif.). All reagents, unless otherwise noted, were obtained from Sigma (St. Louis, Mo.).\nCompounds were pre-incubated with 2 nM PKM2 in reaction buffer (50 mM Tris-HCl, pH 8.0, 200 mM KCl, 30 mM MgCl2, 2 mM DTT, 5% DMSO) for 30 min at ambient temperature. […] After 30 min, ATP formation was measured by Kinase Glo (Promega, Madison, Wis.), and AC50 values were determined using Prism (GraphPad Software, Inc., La Jolla, Calif.).",
  "data": [
    {"smiles": "CCN(CC)CCN(Cc1cccc2[nH]cnc12)C(=O)c1cc(C(F)(F)F)n[nH]1", "note": "[Example 160, N-((1H-benzo[d]imidazol-4-yl)methyl)-N-(2-(diethylamino)ethyl)-3-(trifluoromethyl)-1H-pyrazole-5-carboxamide]", "values": [
      {"measurement": "Max. Resp.", "value": 100, "unit": "%"}
    ]},
    {"smiles": "CCN(CC)CCN(Cc1cccc2[nH]ccc12)C(=O)c1cc(C(F)(F)F)n[nH]1", "note": "[Example 161, N-((1H-indol-4-yl)methyl)-N-(2-(diethylamino)ethyl)-3-(trifluoromethyl)-1H-pyrazole-5-carboxamide]", "values": [
      {"measurement": "Max. Resp.", "value": 100, "unit": "%"}
    ]},
    {"smiles": "O=C(c1cc(C(F)(F)F)n[nH]1)N(CCN1CCCC1)Cc1ccccc1Cl", "note": "[Example 162, N-(2-chlorobenzyl)-3-(trifluoromethyl)-N-(2-(pyrrolidin-1-yl)ethyl)-1H-pyrazole-5-carboxamide]", "values": [
      {"measurement": "Max. Resp.", "value": 100, "unit": "%"}
    ]},
    {"smiles": "O=C(c1cc(C(F)(F)F)n[nH]1)N(CCN1CCCC1)Cc1cccc2nc[nH]c12", "note": "[Example 163, N-((1H-benzo[d]imidazol-7-yl)methyl)-3-(trifluoromethyl)-N-(2-(pyrrolidin-1-yl)ethyl)-1H-pyrazole-5-carboxamide]", "values": [
      {"measurement": "Max. Resp.", "value": 100, "unit": "%"}
    ]},
    {"smiles": "O=C(c1cc(C(F)(F)F)n[nH]1)N(CCN1CCCC1)Cc1cccc2[nH]ccc12", "note": "[Example 164, N-((1H-indol-4-yl)methyl)-3-(trifluoromethyl)-N-(2-(pyrrolidin-1-yl)ethyl)-1H-pyrazole-5-carboxamide]", "values": [
      {"measurement": "Max. Resp.", "value": 100, "unit": "%"}
    ]},
    {"smiles": "O=C(c1cc(C(F)(F)F)n[nH]1)N(CCN1CCCC1)Cc1ccc(Cl)cc1Cl", "note": "[Example 165, N-(2,4-dichlorobenzyl)-3-(trifluoromethyl)-N-(2-(pyrrolidin-1-yl)ethyl)-1H-pyrazole-5-carboxamide]", "values": [
      {"measurement": "Max. Resp.", "value": 50, "unit": "%"}
    ]},
    {"smiles": "CCN(CC)CCN(Cc1cccc(Cl)c1Cl)C(=O)c1cc(C(F)(F)F)n[nH]1", "note": "[Example 167, N-(2,3-dichlorobenzyl)-N-(2-(diethylamino)ethyl)-3-(trifluoromethyl)-1H-pyrazole-5-carboxamide]", "values": [
      {"measurement": "Max. Resp.", "value": 100, "unit": "%"}
    ]},
    {"smiles": "CCN(CC)CCN(Cc1cc(Cl)ccc1Cl)C(=O)c1cc(C(F)(F)F)n[nH]1", "note": "[Example 168, N-(2,5-dichlorobenzyl)-N-(2-(diethylamino)ethyl)-3-(trifluoromethyl)-1H-pyrazole-5-carboxamide]", "values": [
      {"measurement": "Max. Resp.", "value": 100, "unit": "%"}
    ]},
    {"smiles": "CCN(CC)CCN(Cc1c(Cl)cccc1Cl)C(=O)c1cc(C(F)(F)F)n[nH]1", "note": "[Example 169, N-(2,6-dichlorobenzyl)-N-(2-(diethylamino)ethyl)-3-(trifluoromethyl)-1H-pyrazole-5-carboxamide]", "values": [
      {"measurement": "Max. Resp.", "value": 100, "unit": "%"}
    ]},
    {"smiles": "CCN(CC)CCN(Cc1ccc(F)cc1Cl)C(=O)c1cc(C(F)(F)F)n[nH]1", "note": "[Example 170, N-(2-chloro-4-fluorobenzyl)-N-(2-(diethylamino)ethyl)-3-(trifluoromethyl)-1H-pyrazole-5-carboxamide]", "values": [
      {"measurement": "Max. Resp.", "value": 100, "unit": "%"}
    ]},
    {"smiles": "CCN(CC)CCN(Cc1cc(F)ccc1Cl)C(=O)c1cc(C(F)(F)F)n[nH]1", "note": "[Example 171, N-(2-chloro-5-fluorobenzyl)-N-(2-(diethylamino)ethyl)-3-(trifluoromethyl)-1H-pyrazole-5-carboxamide]", "values": [
      {"measurement": "Max. Resp.", "value": 100, "unit": "%"}
    ]},
    {"smiles": "CCN(CC)CCN(Cc1ccccc1Cl)C(=O)c1cc(Br)n[nH]1", "note": "[Example 175, N-(2-chlorobenzyl)-3-bromo-N-(2-(diethylamino)ethyl)-1H-pyrazole-5-carboxamide]", "values": [
      {"measurement": "Max. Resp.", "value": 100, "unit": "%"}
    ]},
    {"smiles": "CCN(CC)CCN(Cc1ccccc1Cl)C(=O)c1cc(Cl)n[nH]1", "note": "[Example 176, N-(2-chlorobenzyl)-3-chloro-N-(2-(diethylamino)ethyl)-1H-pyrazole-5-carboxamide]", "values": [
      {"measurement": "AC50", "value": 1150, "unit": "nM"},
      {"measurement": "Max. Resp.", "value": 100, "unit": "%"}
    ]},
    {"smiles": "O=C(c1cc(C(F)(F)F)n[nH]1)N(CCN1CCCC1)Cc1c(F)cccc1Cl", "note": "[Example 177, N-(2-chloro-6-fluorobenzyl)-3-(trifluoromethyl)-N-(2-(pyrrolidin-1-yl)ethyl)-1H-pyrazole-5-carboxamide]", "values": [
      {"measurement": "Max. Resp.", "value": 100, "unit": "%"}
    ]},
    {"smiles": "O=C(c1cc(C(F)(F)F)n[nH]1)N(CCN1CCCC1)Cc1c(Cl)cccc1Cl", "note": "[Example 178, N-(2,6-dichlorobenzyl)-3-(trifluoromethyl)-N-(2-(pyrrolidin-1-yl)ethyl)-1H-pyrazole-5-carboxamide]", "values": [
      {"measurement": "Max. Resp.", "value": 100, "unit": "%"}
    ]},
    {"smiles": "O=C(c1cc(C(F)(F)F)n[nH]1)N(CCN1CCCCC1)Cc1c(F)cccc1Cl", "note": "[Example 179, N-(2-chloro-6-fluorobenzyl)-3-(trifluoromethyl)-N-(2-(piperidin-1-yl)ethyl)-1H-pyrazole-5-carboxamide]", "values": [
      {"measurement": "Max. Resp.", "value": 100, "unit": "%"}
    ]},
    {"smiles": "O=C(c1cc(C(F)(F)F)n[nH]1)N(CCN1CCCCC1)Cc1c(Cl)cccc1Cl", "note": "[Example 180, N-(2,6-dichlorobenzyl)-3-(trifluoromethyl)-N-(2-(piperidin-1-yl)ethyl)-1H-pyrazole-5-carboxamide]", "values": [
      {"measurement": "Max. Resp.", "value": 100, "unit": "%"}
    ]},
    {"smiles": "CC(CN(Cc1ccccc1Cl)C(=O)c1cc(C(F)(F)F)n[nH]1)N1CCCC1", "note": "(centres unmarked) [Example 181, N-(2-chlorobenzyl)-3-(trifluoromethyl)-N-(2-(pyrrolidin-1-yl)propyl)-1H-pyrazole-5-carboxamide]", "values": [
      {"measurement": "Max. Resp.", "value": 100, "unit": "%"}
    ]},
    {"smiles": "CCN(CC)CCN(Cc1cccc(F)c1Cl)C(=O)c1cc(C(F)(F)F)n[nH]1", "note": "[Example 182, N-(2-chloro-3-fluorobenzyl)-N-(2-(diethylamino)ethyl)-3-(trifluoromethyl)-1H-pyrazole-5-carboxamide]", "values": [
      {"measurement": "Max. Resp.", "value": 100, "unit": "%"}
    ]},
    {"smiles": "CCN(CC)CCN(Cc1cc(N)ccc1Cl)C(=O)c1cc(C(F)(F)F)n[nH]1", "note": "[Example 183, N-(5-amino-2-chlorobenzyl)-N-(2-(diethylamino)ethyl)-3-(trifluoromethyl)-1H-pyrazole-5-carboxamide]", "values": [
      {"measurement": "Max. Resp.", "value": 100, "unit": "%"}
    ]},
    {"smiles": "CCN(CC)CCN(Cc1ccccc1C(C)C)C(=O)c1cc(C(F)(F)F)n[nH]1", "note": "[Example 184, N-(2-isopropylbenzyl)-N-(2-(diethylamino)ethyl)-3-(trifluoromethyl)-1H-pyrazole-5-carboxamide]", "values": [
      {"measurement": "Max. Resp.", "value": 85, "unit": "%"}
    ]},
    {"smiles": "CCN(CC)CCCN(Cc1ccccc1Cl)C(=O)c1cc(C(F)(F)F)n[nH]1", "note": "[Example 185, N-(2-chlorobenzyl)-N-(3-(diethylamino)propyl)-3-(trifluoromethyl)-1H-pyrazole-5-carboxamide]", "values": [
      {"measurement": "Max. Resp.", "value": 53, "unit": "%"}
    ]},
    {"smiles": "CN(C)CCCN(Cc1ccccc1Cl)C(=O)c1cc(C(F)(F)F)n[nH]1", "note": "[Example 186, N-(2-chlorobenzyl)-N-(3-(dimethylamino)propyl)-3-(trifluoromethyl)-1H-pyrazole-5-carboxamide]", "values": [
      {"measurement": "Max. Resp.", "value": 100, "unit": "%"}
    ]},
    {"smiles": "CN(C)CCN(Cc1ccccc1Cl)C(=O)c1cc(C(F)(F)F)n[nH]1", "note": "[Example 187, N-(2-chlorobenzyl)-N-(2-(dimethylamino)ethyl)-3-(trifluoromethyl)-1H-pyrazole-5-carboxamide]", "values": [
      {"measurement": "Max. Resp.", "value": 100, "unit": "%"}
    ]},
    {"smiles": "CC1CC(C)CN(CCN(Cc2ccccc2Cl)C(=O)c2cc(C(F)(F)F)n[nH]2)C1", "note": "(centres unmarked) [Example 188, N-(2-chlorobenzyl)-3-(trifluoromethyl)-N-(2-(3,5-dimethylpiperidin-1-yl)ethyl)-1H-pyrazole-5-carboxamide]", "values": [
      {"measurement": "Max. Resp.", "value": 60, "unit": "%"}
    ]},
    {"smiles": "O=C(c1cc(C(F)(F)F)n[nH]1)N(CCN1CCCCCC1)Cc1ccccc1Cl", "note": "[Example 189, N-(2-chlorobenzyl)-N-(2-(azepan-1-yl)ethyl)-3-(trifluoromethyl)-1H-pyrazole-5-carboxamide]", "values": [
      {"measurement": "Max. Resp.", "value": 100, "unit": "%"}
    ]},
    {"smiles": "CC1CCN(CCN(Cc2ccccc2Cl)C(=O)c2cc(C(F)(F)F)n[nH]2)CC1", "note": "[Example 190, N-(2-chlorobenzyl)-3-(trifluoromethyl)-N-(2-(4-methylpiperidin-1-yl)ethyl)-1H-pyrazole-5-carboxamide]", "values": [
      {"measurement": "Max. Resp.", "value": 100, "unit": "%"}
    ]},
    {"smiles": "CC1CCCN(CCN(Cc2ccccc2Cl)C(=O)c2cc(C(F)(F)F)n[nH]2)C1", "note": "(centres unmarked) [Example 191, N-(2-chlorobenzyl)-3-(trifluoromethyl)-N-(2-(3-methylpiperidin-1-yl)ethyl)-1H-pyrazole-5-carboxamide]", "values": [
      {"measurement": "Max. Resp.", "value": 100, "unit": "%"}
    ]},
    {"smiles": "CC1CCCCN1CCN(Cc1ccccc1Cl)C(=O)c1cc(C(F)(F)F)n[nH]1", "note": "(centres unmarked) [Example 192, N-(2-chlorobenzyl)-3-(trifluoromethyl)-N-(2-(2-methylpiperidin-1-yl)ethyl)-1H-pyrazole-5-carboxamide]", "values": [
      {"measurement": "Max. Resp.", "value": 100, "unit": "%"}
    ]},
    {"smiles": "CCN(CC)CCN(Cc1ccccc1Cl)C(=O)c1[nH]nc(Cl)c1F", "note": "[Example 193, N-(2-chlorobenzyl)-3-chloro-N-(2-(diethylamino)ethyl)-4-fluoro-1H-pyrazole-5-carboxamide]", "values": [
      {"measurement": "Max. Resp.", "value": 58, "unit": "%"}
    ]},
    {"smiles": "O=C(c1cc(C(F)(F)F)n[nH]1)N(CCN1CCCCCC1)Cc1ccc(O)cc1Cl", "note": "[Example 194, N-(2-chloro-4-hydroxybenzyl)-N-(2-(azepan-1-yl)ethyl)-3-(trifluoromethyl)-1H-pyrazole-5-carboxamide]", "values": [
      {"measurement": "Max. Resp.", "value": 100, "unit": "%"}
    ]},
    {"smiles": "O=C(c1cc(C(F)(F)F)n[nH]1)N(CCN1CCCCCC1)Cc1ccc(O)cc1F", "note": "[Example 195, N-(2-fluoro-4-hydroxybenzyl)-N-(2-(azepan-1-yl)ethyl)-3-(trifluoromethyl)-1H-pyrazole-5-carboxamide]", "values": [
      {"measurement": "Max. Resp.", "value": 100, "unit": "%"}
    ]},
    {"smiles": "Nc1ccc(Cl)c(CN(CCN2CCCCCC2)C(=O)c2cc(C(F)(F)F)n[nH]2)c1", "note": "[Example 196, N-(5-amino-2-chlorobenzyl)-N-(2-(azepan-1-yl)ethyl)-3-(trifluoromethyl)-1H-pyrazole-5-carboxamide]", "values": [
      {"measurement": "Max. Resp.", "value": 100, "unit": "%"}
    ]},
    {"smiles": "O=C(c1cc(C(F)(F)F)n[nH]1)N(CCN1CCCCCC1)Cc1ccccc1F", "note": "[Example 197, N-(2-fluorobenzyl)-N-(2-(azepan-1-yl)ethyl)-3-(trifluoromethyl)-1H-pyrazole-5-carboxamide]", "values": [
      {"measurement": "Max. Resp.", "value": 100, "unit": "%"}
    ]},
    {"smiles": "O=C(c1cc(C(F)(F)F)n[nH]1)N(CCN1CCCCCC1)Cc1c(F)cccc1F", "note": "[Example 198, N-(2,6-difluorobenzyl)-N-(2-(azepan-1-yl)ethyl)-3-(trifluoromethyl)-1H-pyrazole-5-carboxamide]", "values": [
      {"measurement": "Max. Resp.", "value": 100, "unit": "%"}
    ]},
    {"smiles": "CCC1CCN(CCN(Cc2ccccc2Cl)C(=O)c2cc(C(F)(F)F)n[nH]2)CC1", "note": "[Example 199, N-(2-chlorobenzyl)-N-(2-(4-ethylpiperidin-1-yl)ethyl)-3-(trifluoromethyl)-1H-pyrazole-5-carboxamide]", "values": [
      {"measurement": "Max. Resp.", "value": "100/100%"}
    ]},
    {"smiles": "CC1CCCN(CCN(Cc2cc(N)ccc2Cl)C(=O)c2cc(C(F)(F)F)n[nH]2)C1", "note": "(centres unmarked) [Example 200, N-(5-amino-2-chlorobenzyl)-3-(trifluoromethyl)-N-(2-(3-methylpiperidin-1-yl)ethyl)-1H-pyrazole-5-carboxamide]", "values": [
      {"measurement": "Max. Resp.", "value": 100, "unit": "%"}
    ]}
  ]
}
